In patent US8835458B2 (Hanmi Science Co., Ltd, priority 2010, dated 2014):
Structures can show the parent of a compound that is named as a salt.

How the values were obtained:
[1] = tested on: MDA-MB-231 breast cancer cell lines; test: Evaluation of inhibition on cell growth (MTS); type: cell-based; conditions: Homo sapiens, MDA-MB-231, 120 hours
Protocol: (§1) MDA-MB-231 breast cancer cell lines (ATCC #HTB-26) and BxPC-3 pancreas cancer cell lines (ATCC #CRL 1687), which have been reported to express XIAP, were obtained from ATCC (American type culture collection; Rockville, Md.). MDA-MB-231 cell lines were incubated in L-15 medium supplemented with 10% FBS and 1% penicillin/streptomycin (Gibco BRL) at a T-75 cm^2 growth flask. In addition, BxPC-3 cell lines were incubated in RPMI medium supplemented with 10% FBS and 1% penicillin/streptomycin. For experiments of toxicity to normal cells, fibroblasts Hs27 (ATCC #CRL 1634) and Balb/c3t3 (ATCC #CCL 163) were used. The various cell lines were transferred into 96-well plates at a density of 3,000˜5,000 cells/100 μL, and cultured for 24 hours under conditions of 37° C., 5% CO2, 95% air, and 100% relative humidity (MDA-MB-231 cells were cultured under atmospheric conditions). The cells were treated with 10 μM˜0.1 nM of test compounds, and MDA-MB-231, BxPC-3, and normal cell lines were cultured for 120, 96, and 72 hours, respectively.
(§2) Cell viabilities of MDA-MB-231 cell lines were measured at an absorbance of 490 nm using CellTiter 96™ AQueous One Solution Cell proliferation Assay (MTS, Promega), and cell viabilities of BxPC-3 and normal cell lines were measured by fixing cells with 10% TCA (trichloroacetic acid), staining with SRB (sulforhodamine B), and measuring at 540 nm. From the values, GI50 values in which test compounds reduce the growth of cancer cells by 50% were calculated. The growth rates of cancer cells were calculated from following Equation 1 or 2. [(Ti−Tz)/(C−Tz)]×100 (for Ti>=Tz) [Equation 1] [(Ti−Tz)/Tz]×100 (for Ti<Tz) [Equation 2] In Equations 1 and 2, Tz refers to a density of untreated cells, which is an absorbance in 0% cell growth groups. C refers to a density of cells cultured by adding only medium, and Ti refers to a density of cells treated with test compounds.
(§3) GI50 value is the concentration of a test compound when the value of Equation 1 is 50, which indicates the concentration of test compound required to inhibit the cancer cells by 50%. On each measurement, test compounds were compared with a control.
(§4) The activity value of each compound (GI50 value) was shown in Table 5, and an IAP antagonist was used as a control.
(§5) In the activity measurement on MDA-MB-231 breast cancer cell lines, the values were represented as “***” for 100 nM or less, “**” for over 100 nM to below 1,000 nM, and “*” for 1,000 nM or more. In the measurement on normal cell lines, Balb/C and Hs27, the values were represented as “+++” for 10,000 nM or more, “++” for over 5,000 nM to below 10,000 nM, and “+” for 5,000 nM or less.

[2] = Toxicity to normal cells (SRB); type: cell-based, human; conditions: human, Hs27 fibroblasts (normal cell line)
Protocol: as §1, §2, §3, §4, §5

Row | Structure (SMILES) | GI50 [1] [nM] | GI50 at 72 h [2] [nM]
1 | CCN(CC)c1ccc(Nc2ncnc3cc(OC)c(NC(=O)[C@@H]4CCCN4C(=O)[C@@H](NC(=O)[C@H](C)NC)C(C)(C)C)cc23)cc1Cl [Example 99, (S)—N-(4-((3-chloro-4-(diethylamino)phenyl)amino)-7-methoxyquinazolin-6-yl)-1-((S)-3,3-dimethyl-2-((S)-2-(methylamino)propanamido)butanoyl)pyrrolidine-2-carboxamide hydrochloride] | ≤ 100 | > 10000
2 | CN[C@@H](C)C(=O)N[C@H](C(=O)N1CCC[C@H]1C(=O)Nc1cc2c(NC3CCC(N4CCC(C)CC4)CC3)ncnc2cc1OC)C(C)(C)C (stereo partly drawn) [Example 107, (S)-1-((S)-3,3-dimethyl-2-((S)-2-(methylamino)propanamido)butanoyl)-N-(7-methoxy-4-((4-(4-methylpiperidin-1-yl)cyclohexyl)amino)quinazolin-6-yl)pyrrolidine-2-carboxamide hydrochloride] | 100 to 1000 | > 10000
3 | CN[C@@H](C)C(=O)N[C@H](C(=O)N1CCC[C@H]1C(=O)Nc1cc2c(NCCc3ccccc3)ncnc2cc1OC)C(C)(C)C [Example 83, hydrochloride] | 100 to 1000 | > 10000
4 | CN[C@@H](C)C(=O)N[C@H](C(=O)N1CCC[C@H]1C(=O)Nc1cc2c(Nc3ccc(Br)c(Cl)c3F)ncnc2cc1OC)C(C)(C)C [Example 87, (S)—N-(4-((4-bromo-3-chloro-2-fluorophenyl)amino)-7-methoxyquinazolin-6-yl)-1-((S)-3,3-dimethyl-2-((S)-2-(methylamino)propanamido)butanoyl)pyrrolidine-2-carboxamide hydrochloride] | ≤ 100 | > 10000
5 | CN[C@@H](C)C(=O)N[C@H](C(=O)N1CCC[C@H]1C(=O)Nc1cc2c(Nc3ccc(N4CCN(C)CC4)c(Cl)c3)ncnc2cc1OC)C(C)(C)C [Example 86, (S)—N-(4-((3-chloro-4-(4-methylpiperazin-1-yl)phenyl)amino)-7-methoxyquinazolin-6-yl)-1-((S)-3,3-dimethyl-2-((S)-2-(methylamino)propanamido)butanoyl)pyrrolidine-2-carboxamide hydrochloride] | ≤ 100 | > 10000
6 | C#CCOc1ccc(Nc2ncnc3cc(OC)c(NC(=O)[C@@H]4CCCN4C(=O)[C@@H](NC(=O)[C@H](C)NC)C(C)(C)C)cc23)cn1 [Example 84, (S)-1-((S)-3,3-dimethyl-2-((S)-2-(methylamino)propanamido)butanoyl)-N-(7-methoxy-4-((6-(prop-2-yn-1-yloxy)pyridin-3-yl)amino)quinazolin-6-yl)pyrrolidine-2-carboxamide hydrochloride] | 100 to 1000 | > 10000
7 | CN[C@@H](C)C(=O)N[C@H](C(=O)N1CCC[C@H]1C(=O)Nc1cc2c(Nc3ccc(CN4CCCCC4)cc3)ncnc2cc1OC)C(C)(C)C [Example 104, (S)-1-((S)-3,3-dimethyl-2-((S)-2-(methylamino)propanamido)butanoyl)-N-(7-methoxy-4-((4-(piperidin-1-ylmethyl)phenyl)amino)quinazolin-6-yl)pyrrolidine-2-carboxamide hydrochloride] | ≤ 100 | > 10000
8 | CN[C@@H](C)C(=O)N[C@H](C(=O)N1CCC[C@H]1C(=O)Nc1cc2c(Nc3ccc(N4CCN(CC5CC5)CC4)c(Cl)c3)ncnc2cc1OC)C(C)(C)C [Example 92, (S)—N-(4-((3-chloro-4-(4-(cyclopropylmethyl)piperazin-1-yl)phenyl)amino)-7-methoxyquinazolin-6-yl)-1-((S)-3,3-dimethyl-2-((S)-2-(methylamino)propanamido)butanoyl)pyrrolidine-2-carboxamide] | ≤ 100 | > 10000
9 | CN[C@@H](C)C(=O)N[C@H](C(=O)N1CCC[C@H]1C(=O)Nc1cc2c(Nc3ccc(F)cc3Br)ncnc2cc1OC)C(C)(C)C [Example 82, (S)—N-(4-((2-bromo-4-fluorophenyl)amino)-7-methoxyquinazolin-6-yl)-1-((S)-3,3-dimethyl-2-((S)-2-(methylamino)propanamido)butanoyl)pyrrolidine-2-carboxamide hydrochloride] | ≤ 100 | > 10000
10 | CN[C@@H](C)C(=O)N[C@H](C(=O)N1CCC[C@H]1C(=O)Nc1cc2c(Nc3ccc(C4CCN(C)CC4)cc3)ncnc2cc1OC)C(C)(C)C [Example 106, (S)-1-((S)-3,3-dimethyl-2-((S)-2-(methylamino)propanamido)butanoyl)-N-(7-methoxy-4-((4-(1-methylpiperidin-4-yl)phenyl)amino)quinazolin-6-yl)pyrrolidine-2-carboxamide hydrochloride] | ≤ 100 | > 10000
11 | CN[C@@H](C)C(=O)N[C@H](C(=O)N1CCC[C@H]1C(=O)Nc1cc2c(Nc3ccc(S(=O)(=O)N4CCN(C)CC4)cc3)ncnc2cc1OC)C(C)(C)C [Example 108, (S)-1-((S)-3,3-dimethyl-2-((S)-2-(methylamino)propanamido)butanoyl)-N-(7-methoxy-4-((4-((4-methylpiperazin-1-yl)sulfonyl)phenyl)amino)quinazolin-6-yl)pyrrolidine-2-carboxamide hydrochloride] | ≤ 100 | > 10000
12 | CN[C@@H](C)C(=O)N[C@H](C(=O)N1CCC[C@H]1C(=O)Nc1cc2c(Nc3ccc4c(=O)cc(C)oc4c3)ncnc2cc1OC)C(C)(C)C [Example 93, (S)-1-((S)-3,3-dimethyl-2-((S)-2-(methylamino)propanamide)butanoyl)-N-(7-methoxy-4-((2-methyl-4-oxo-4H-chromen-7-yl)amino)quinazolin-6-yl)pyrrolidine-2-carboxamide hydrochloride] | ≤ 100 | > 10000
13 | CN[C@@H](C)C(=O)N[C@H](C(=O)N1CCC[C@H]1C(=O)Nc1cc2c(Nc3ccc(N4CCN(CC5CC5)CC4)c(F)c3)ncnc2cc1OC)C(C)(C)C [Example 100, hydrochloride] | ≤ 100 | > 10000
14 | CN[C@@H](C)C(=O)N[C@H](C(=O)N1CCC[C@H]1C(=O)Nc1cc2c(Nc3ccc(Cl)nc3)ncnc2cc1OC)C(C)(C)C [Example 79, (S)—N-(4-((6-chloropyridin-3-yl)amino)-7-methoxyquinazolin-6-yl)-1-((S)-3,3-dimethyl-2-((S)-2-(methylamino)propanamido)butanoyl)pyrrolidine-2-carboxamide hydrochloride] | ≤ 100 | > 10000
15 | CN[C@@H](C)C(=O)N[C@H](C(=O)N1CCC[C@H]1C(=O)Nc1cc2c(Nc3ccc(N4CCOCC4)c(Cl)c3)ncnc2cc1OC)C(C)(C)C [Example 95, (S)—N-(4-((3-chloro-4-morpholinophenyl)amino)-7-methoxyquinazolin-6-yl)-1-((S)-3,3-dimethyl-2-((S)-2-(methylamino)propanamido)butanoyl)pyrrolidine-2-carboxamide] | ≤ 100 | > 10000
16 | CN[C@@H](C)C(=O)N[C@H](C(=O)N1CCC[C@H]1C(=O)Nc1cc2c(NC(=O)Nc3ccccc3F)ncnc2cc1OC)C(C)(C)C [Example 89, (S)-1-((S)-3,3-dimethyl-2-((S)-2-(methylamino)propanamido)butanoyl)-N-(4-(3-(2-fluorophenyl)ureido)-7-methoxyquinazolin-6-yl)pyrrolidine-2-carboxamide hydrochloride] | ≤ 100 | > 10000
